For two molecules, Kd results are on record in patent publication US6921531B2, “Administering bifunctional molecules containing a drug moiety and presenter protein ligand for therapy” (The Board of Trustees of the Leland Stanford Junior …, priority 1998, dated 2005).

The target in one assay is T1, FKBP12 (Homo sapiens, UniProt P62942).
T1 construct: GST (N, cleaved yes); made in house
Briefly: Binding constants (Kd) for FKBP12, isothermal titration calorimetry. An excerpt:
(§1) SLF was synthesized according to the procedures of Holt et al. [J. Am. Chem. Soc. 1993, 115, 9925]. SLF was coupled to the N-terminus of the resin-bound protected pYEEI peptide using PyBOP. The heterodimeric SLFpYEEI was deprotected and cleaved from the Novasyn TGT resin (Calbiochem-Novabiochem, San Diego, Ca.) using 25% trifluoroacetic acid and 2.5% triisopropyl silane in methylene chloride and the desired product was isolated using reverse phase HPLC. C. […] Recombinant FKBP12 was expressed as a GST fusion protein and bound to glutathione beads (Pharmacia). Using thrombin (Sigma) to cleave the GST-FKBP12 fusion protein at a thrombin cleavage site in the linker between GST and FKBP12, recombinant FKBP12 could be released from the glutathione beads where GST remained bound. FKBP52 was expressed with a tag of six histidine residues at its N-terminus (pET28c expression vector, Novagen). The recombinant protein was bound via the histidine tag to Ni^2+ NTA agarose beads (Qiagen), washed extensively and eluted with imidazole. […]
(§2) SLFpYEEI and FKpYEEI are bifunctional molecules that can bind FKBP12 and FKBP52 as well as the Fyn SH2 domain (FIG. 2). The binding constants (Kd values) of the bifunctional molecules for the three proteins were measured using isothermal titration calorimetry (ITC) (Table 1).
For orientation: ITC needs no label: the signal is the heat of the interaction.

The target of a further assay is T2, FKBP52 (Homo sapiens, UniProt Q02790).
T2 construct: His6 (N); made in house
T2 sequence (Q02790 1-459): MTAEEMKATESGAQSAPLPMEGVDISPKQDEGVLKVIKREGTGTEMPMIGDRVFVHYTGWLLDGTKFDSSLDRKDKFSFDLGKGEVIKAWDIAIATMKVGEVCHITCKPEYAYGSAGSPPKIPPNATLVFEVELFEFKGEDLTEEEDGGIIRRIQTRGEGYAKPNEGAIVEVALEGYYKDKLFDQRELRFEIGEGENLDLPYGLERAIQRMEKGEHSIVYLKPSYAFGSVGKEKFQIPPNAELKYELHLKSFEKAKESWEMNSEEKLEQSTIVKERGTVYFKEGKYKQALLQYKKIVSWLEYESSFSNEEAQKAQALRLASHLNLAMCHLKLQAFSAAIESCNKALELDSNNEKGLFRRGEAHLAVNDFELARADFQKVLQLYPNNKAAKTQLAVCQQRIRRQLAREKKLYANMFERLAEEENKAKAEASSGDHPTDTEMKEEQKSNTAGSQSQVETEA
The assay can be described thus: Binding constants (Kd) for FKBP52, isothermal titration calorimetry.
From the text: as §1, §2

The structures appear in SMILES notation.

T1 sequence (P62942 whole entry, species assumed): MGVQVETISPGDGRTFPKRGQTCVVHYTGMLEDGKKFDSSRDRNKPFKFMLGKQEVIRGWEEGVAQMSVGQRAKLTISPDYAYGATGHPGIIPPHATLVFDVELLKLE

Molecule `CC[C@H](C)[C@H](NC(=O)[C@H](CCC(=O)O)NC(=O)[C@H](CCC(=O)O)NC(=O)[C@H](Cc1ccc(OP(=O)(O)O)cc1)NC(=O)COc1cccc([C@@H](CCc2ccc(OC)c(OC)c2)OC(=O)[C@@H]2CCCCN2C(=O)C(=O)C(C)(C)CC)c1)C(=O)O` [SLFpYEEI] yielded a Kd on FKBP12 of 61 nM.
For the molecule `CC[C@H](C)[C@H](NC(=O)[C@H](CCC(=O)O)NC(=O)[C@H](CCC(=O)O)NC(=O)[C@H](Cc1ccc(OP(=O)(O)O)cc1)NC(=O)OCC[C@@H]1/C=C(\C)C[C@H](C)C[C@H](OC)[C@H]2O[C@@](O)(C(=O)C(=O)N3CCCC[C@H]3C(=O)O[C@H](/C(C)=C/[C@@H]3CC[C@@H](O)[C@H](OC)C3)[C@H](C)[C@@H](O)CC1=O)[C@H](C)C[C@@H]2OC)C(=O)O` [FKpYEEI], the results for the Kd at FKBP12 and on FKBP52 were 45 nM and 150 nM, respectively.

By Kd is commonly meant the constant that tells how readily two partners part at equilibrium. Read a high Kd as a looser complex.
